Like-named read-outs stand apart in the source and are kept apart here. Peptide text beside a SMILES is read from it.
How the values were obtained:
[1] = tested on: imiquimod-induced inflammatory responses of the skin; test: Topical omiganan and imiquimod in skin of healthy subjects; assay type: in vivo, human
Experimental: Sixteen (16) healthy subjects participated in the study. Pharmacodynamic effects were assessed on Day 1, 2, 3, 4, 5 and 14 (EOS) by clinical assessment of the lesion on-site with visual erythema grading by a blinded investigator, erythema by colorimetry, erythema by multispectral imaging, erythema by 2D photography analysis, perfusion by laser speckle contrast imaging (LSCI), skin surface biomarkers by transdermal analysis patch (TAP) and local biopsies biomarkers. […] 3 mm skin punch biopsies were collected at day 5 for qPCR mRNA expression, histology and immunohistochemistry. Enhanced inflammation and immune system activation was observed when OMN was applied to 48 hours IMQ primed skin. This was most pronounced for markers IFNγ, IL-10, IL-6, MX1 and MXA (FIGS. 39-43, respectively) indicating an increased anti-viral response. Further, this activity is correlated with cellular infiltrates of CD4+, CD8+ and CD14+ cells (FIGS. 44-47).

[2] = tested on: external anogenital warts; assay type: in vivo, human
Experimental: A randomized, double-blind, placebo-controlled study to assess the pharmacodynamics, safety/tolerability and efficacy of omiganan in patients with external anogenital warts was conducted. 24 patients aged 18 years or older with clinically diagnosed external anogenital warts were enrolled. […] The gel was applied topically once daily for 12 weeks. The treatment period was from day 0 till day 84. During the treatment period subjects visited the clinical unit on days 0, 14, 28, 56 and 84. A fixed dose of omiganan or placebo was applied once daily. Two follow up visits were scheduled on days 126 and 168. During study execution, vital signs were measured on days 0, 14, 28, 56 and 84. Pharmacodynamic assessments were performed on day 0 (pre-dose), 14, 28, 56 and 84, respectively. Punch biopsies were performed at the screening and on days 56 and 168. Subjects were dosed 84 consecutive days with approximately 24 hours between each treatment. Omiganan or placebo (vehicle) was administered to the subjects. […] Subjects were instructed to apply a fingertip unit of gel (approximately […]). Omiganan is prepared as a lyophilized powder of the pentahydrochloride salt. The molecular formula is C90H127N27O12. HCl*H2O. […] Any other therapy for external anogenital warts (topical treatment, laser therapy, cryotherapy, photodynamic therapy and surgical excision) was not allowed from 28 days prior to the first study drug administration, during the study and until the 3 month follow up assessment was completed. Wart count and wart clearance. The warts were counted at every study visit. FIGS. 18A and 18B show the change in value of the count of the target warts over time per treatment. […] Wart clearance was derived from the count of all warts present at baseline. In FIG. 19, the proportion of baseline lesions cleared is shown. […] Wart size. Wart size was measured during every visit. The change in mean of the long and short diameter, height and volume measured is presented in FIG. 21 along with the p-values.

[3] = tested on: TLR7; test: Ongoing inflammation in PBMC cultures: imiquimod 3 hrs followed by omiganan 21 hrs; assay type: cell-based, human
Experimental: Primary cell cultures were prepared in RPMI including 5% autologous plasma. Isolated PBMC cells were cultured in 96-well plates at a density of 0.5×10^6cells/well at 37° C., under humidified 5% CO2.
IL-1β, TNFα, IL-6 and IL-8 were measured simultaneously with a fixed electrochemoluminescence platform based on the sandwich ELISA principle of capture and detection antibodies, produced by MESO SCALE DISCOVERY (MSD, MESO SCALE QUICKPLEX SQ120). The applied assay was the V-PLEX PLUS pro-inflammatory cytokine panel II, including IL-1β, TNFα, IL-6 and IL-8. This assay includes manufacturer-provided control samples with indicated nominal values for comparison. These lyophilized controls, i.e. freeze-dried controls for IL-1β, TNFα, IL-6, IL-8, were prepared freshly at the time of use. QC samples were prepared from the calibrator at 3 different concentrations along the standard curve as multiple aliquots from a single batch and maintained at −20° C. Low, medium and high concentration controls were included in every multiplex assay run to control intra- and inter-assay variation. V-PLEX panels are specific for the detection of human chemokines and cytokines, and combinations have been validated by the manufacturer, to ensure no cross-reactivity.
Briefly, PBMC primary cultures were prepared from 4 donors. […] The readouts for the following cytokine and chemokine release were measured: IL-1β, IL-2, IL-4, IL-6, IL-8 HA, IL-8, IL-12p70, IL-13, IFN-γ, and TNF-α were measured. The cultures were prepared in duplicate.

[4] = tested on: HPV6 and HPV11; test: HPV viral load (qPCR) in swabs of target wart; assay type: in vivo
Experimental: The treatment period was from day 0 till day 84. During the treatment period subjects visited the clinical unit on days 0, 14, 28, 56 and 84. A fixed dose of omiganan or placebo was applied once daily. Two follow up visits were scheduled on days 126 and 168. During study execution, vital signs were measured on days 0, 14, 28, 56 and 84. Pharmacodynamic assessments were performed on day 0 (pre-dose), 14, 28, 56 and 84, respectively. Punch biopsies were performed at the screening and on days 56 and 168. Subjects were dosed 84 consecutive days with approximately 24 hours between each treatment.
HPV viral load in swabs. Swabs were taken from the target wart (or site where target wart was) at every study visit. A quantitative PCR (qPCR) of the swabs was performed for HPV6 and HPV11 to determine the viral load of the specific HPV. Swab samples were collected at day 0, 14, 28, 56, 84 (EOT), […] and 168 (EOS). In FIGS. 22A and 22B, the qPCR was expressed as copies/μL and natural log transformed. In FIGS. 23A and 23B, the qPCR was expressed as copies/μL, natural log transformed and also corrected for the amount of DNA in the sample.

[5] = omiganan applied after imiquimod application
[6] = omiganan 25, 12.5, 6.25 μg/mL added after 3 hour imiquimod
[7] = omiganan added after 3 hour imiquimod, effect less obvious

## CC[C@H](C)[C@H](N)C(=O)N[C@@H](CC(C)C)C(=O)N[C@@H](CCCNC(=N)N)C(=O)N[C@@H](Cc1c[nH]c2ccccc12)C(=O)N1CCC[C@H]1C(=O)N[C@@H](Cc1c[nH]c2ccccc12)C(=O)N[C@@H](Cc1c[nH]c2ccccc12)C(=O)N1CCC[C@H]1C(=O)N[C@@H](Cc1c[nH]c2ccccc12)C(=O)N[C@@H](CCCNC(=N)N)C(=O)N[C@@H](CCCNC(=N)N)C(=O)N[C@@H](CCCCN)C(N)=O [omiganan, I L R W P W W P W R R K] (H-ILRWPWWPWRRK-NH2)
[1]; applied to 48 hours IMQ primed skin, biopsies day 5
  relation of this activity to cellular infiltrates of CD4+, CD8+ and CD14+ cells: correlated
[1]; applied to 48 hours IMQ primed skin, biopsies day 5, qPCR
  inflammation and immune system activation (most pronounced for IFNγ, IL-10, IL-6, MX1, MXA): Enhanced
[1]; [5]
  basal blood flow: enhanced the activity of imiquimod
  erythema: enhanced the activity of imiquimod
[2]; EOS, p-value=0.2891 vs vehicle
  proportion of all lesions cleared (printed: mean of baseline warts cleared): 23.82%
[2]; EOS, p-value=0.3918 vs vehicle
  mean of baseline warts cleared: 29.3%
[2]; EOT, p-value=0.1879 vs vehicle
  mean of all warts cleared: 11.4%
[2]; EOT, p-value=0.2500 vs vehicle
  mean of baseline warts cleared: 15.5%
[2]; at EOT visit, p-value=0.0367
  mean volume of the target warts compared to vehicle: significantly lower
[2]; entire study period (pre-dose till EOS), p=0.0655
  volume of the warts compared to vehicle: trend to reduction
[2]; human, in vivo
  adverse events: few adverse events
  safety of administration to patients with external anogenital warts: safe
[2]; p=0.0543
  height of the warts compared to vehicle: clear trend in decrease
[2]; summary of study
  wart count: trend in reduction
[2]; two subjects treated with omiganan
  photography assessment of anogenital warts: visible wart size reduction or even clearance
[3]; [6]
  IL-1β response: did not significantly modify
  IL-8 response: significantly enhanced
[3]; [7]
  IL-6 response: enhanced
  TNF-α response: enhanced
[4]; during omiganan treatment
  viral load of HPV6 in swabs: strong trend toward reduction
[4]; swabs, qPCR, at EOT, p=0.0201
  HPV6 and HPV11 viral load compared to placebo: statistical significant decrease

From patent US20200360471A1, “METHODS OF TREATING AND PREVENTING VIRAL INFECTIONS” (priority 2017, published 2020)
